This note sets out measurements from ChEMBL document CHEMBL1157530, “Cytotoxic and antibacterial sesquiterpenes from Thespesia populnea” (J Nat Prod, 2008).

Values after ≈ are worked out from the molar mass of the structure shown.

One experiment deals with HT-29. The experiment can be described thus: Cytotoxicity against human HT29 cells by SRB assay. Type of experiment: functional, cell-based. For orientation: Sulforhodamine B stains cellular protein and so reports cell mass.
Another experiment has as its system MCF7. The experiment can be described thus: Cytotoxicity against human MCF7 cells by SRB assay. Type of experiment: functional, cell-based.
A further experiment relates to Bacillus subtilis. The experiment can be described thus: Antibacterial activity against Bacillus subtilis. In kind it is functional.
A further experiment deals with KB. The experiment can be described thus: Cytotoxicity against human KB cells by SRB assay. Type of experiment: functional, cell-based.
The test system of another experiment is HeLa. The experiment in a line: Cytotoxicity against human HeLa cells by SRB assay. In kind it is functional, cell-based.
For another experiment, the system named is Staphylococcus aureus. The experiment in a line: Antibacterial activity against Staphylococcus aureus TISTR517. Type of experiment: functional.
A further experiment relates to Enterococcus faecalis. The experiment can be described thus: Antibacterial activity against Enterococcus faecalis. In kind it is functional.

In the case of `Cc1cc2c(C(C)C)ccc(C)c2cc1O`, the half-inhibitory concentration (IC50) in the experiment on HT-29, in the experiment on MCF7, in the experiment with KB and in the experiment with HeLa was above 5 µg/mL throughout. In the experiment with Bacillus subtilis, this compound registered an MIC of 0.59 µg/mL (≈ 2.75 µM).

As to `COc1c(O)c(C=O)c2c(O)c(-c3c(C)cc4c(C(C)C)c(OC)c(O)c(C=O)c4c3O)c(C)cc2c1C(C)C` [6,6'-METHOXYGOSSYPOL], the 50% inhibitory concentration (IC50) is 3 µg/mL (≈ 5.49 µM) in the experiment with HT-29, 4 µg/mL (≈ 7.32 µM) in the experiment on MCF7, above 5 µg/mL in the experiment with KB and above 5 µg/mL with HeLa. Besides, the MIC against Staphylococcus aureus came out at 4.69 µg/mL (≈ 8.58 µM); in the experiment on Bacillus subtilis, 2.34 µg/mL (≈ 4.28 µM); against Enterococcus faecalis, 1.17 µg/mL (≈ 2.14 µM).

With `Cc1cc2c(C(C)C)c(O)c(O)c(C=O)c2c(O)c1-c1c(C)cc2c(C(C)C)c(O)c(O)c(C=O)c2c1O` [GOSSYPOL], the half-maximal inhibitory concentration (IC50) was above 5 µg/mL in the experiment with HT-29, 0.04 µg/mL (≈ 0.0771 µM) in the experiment on KB and 0.08 µg/mL (≈ 0.154 µM) in the experiment on HeLa. The minimum inhibitory concentration (MIC) in the experiment on Staphylococcus aureus and against Bacillus subtilis was 1.17 µg/mL (≈ 2.26 µM) in each case.

For the compound `CC1=Cc2c(c(C)cc3c2C(C)CO3)C(=O)C1=O` (configuration not stated) [MANSONONE D], the IC50 was above 5 µg/mL in the experiment on HT-29, 0.8 µg/mL (≈ 3.3 µM) in the experiment on MCF7, 4.9 µg/mL (≈ 20.2 µM) with KB and 2.8 µg/mL (≈ 11.6 µM) in the experiment with HeLa. In the experiment on Bacillus subtilis, this compound displayed an MIC of 2.34 µg/mL (≈ 9.66 µM).

As for `CC1=C2OCC(C)c3ccc(C)c(c32)C(=O)C1=O` (configuration not stated) [MANSONONE E], the half-inhibitory concentration (IC50) came out at 0.18 µg/mL (≈ 0.743 µM) with HT-29, 0.05 µg/mL (≈ 0.206 µM) with MCF7, 0.4 µg/mL (≈ 1.65 µM) in the experiment with KB and 0.55 µg/mL (≈ 2.27 µM) in the experiment with HeLa. Further, the MIC in the experiment on Bacillus subtilis came to 4.69 µg/mL (≈ 19.4 µM).

For the compound `CC1=CC2=C(C(C)C)C(=O)CC(C)C2=C(O)C1=O` (configuration not stated) [MANSONONE S], the IC50 in the experiment on HT-29, with MCF7, in the experiment on KB and with HeLa was above 5 µg/mL each time.

Consider `CC1=Cc2c(c(C)cc3c2C(C)COC3(C)C)C(=O)C1=O` (configuration not stated) [POPULENE C], for which the 50% inhibitory concentration (IC50) with HT-29 is 2.9 µg/mL (≈ 10.2 µM); in the experiment with MCF7, 2.35 µg/mL (≈ 8.26 µM); with KB, 3 µg/mL (≈ 10.6 µM); with HeLa it was 3.4 µg/mL (≈ 12 µM). Besides, the MIC with Staphylococcus aureus was above 10 µg/mL; with Bacillus subtilis, 4.69 µg/mL (≈ 16.5 µM).

`Cc1cc2c(c(O)c1O)[C@H](C)CC1=C2[C@@H](C)COC1(C)C` [POPULENE D]: the half-inhibitory concentration (IC50) with HT-29 was determined as 2.37 µg/mL (≈ 8.22 µM); in the experiment with MCF7, 1.85 µg/mL (≈ 6.41 µM); in the experiment with KB it was 3.1 µg/mL (≈ 10.7 µM); in the experiment with HeLa it was 0.95 µg/mL (≈ 3.29 µM). Also, the minimum inhibitory concentration (MIC) against Bacillus subtilis was determined as 4.69 µg/mL (≈ 16.3 µM).

In general, IC50 refers to the concentration needed to halve the response being measured. A lower IC50 goes with higher potency. By MIC is commonly meant the least concentration at which growth counts as inhibited. A higher MIC goes with weaker potency.
